In brackets after ≈: the same amount, converted by molar mass. Entries after “also recorded” stand apart in the source; their conditions may differ. Where two headings read alike, the source gives them in different places.
Key:
[1] = test system: BHK-21 cells
[2] = test system: HIV-1 IIIB; experiment: microbe, parasite or virus in culture; format: cell-based, Human Immunodeficiency Virus type-1
[3] = test system: YFV; experiment: microbe, parasite or virus in culture; format: cell-based, yellow fever virus
[4] = test system: WNV; experiment: microbe, parasite or virus in culture; format: cell-based, west nile virus
[5] = test system: M. tuberculosis H37Ra ATCC 25177; experiment: microbe, parasite or virus in culture; format: cell-based, Mycobacterium tuberculosis
[6] = test system: Vero-76 cells
[7] = test system: West Nile virus, Dengue virus and Yellow Fever virus; format: cell-based, Flaviviridae; settings: read-out: EC50 range against West Nile virus, Dengue virus and Yellow Fever virus
[8] = test system: Reo-1; experiment: microbe, parasite or virus in culture; format: cell-based, reovirus type-1
[9] = test system: MT-4 cells
[10] = test system: WNV; experiment: Adsorption assay; format: cell-based, west nile virus; settings: BHK cells, m.o.i. 1, 0-60 min at 4°C; 15μM for 4, 20μM for 5
[11] = test system: human lung adenocarcinoma epithelial cell line A549; settings: previous studies; cited from earlier work
[12] = test system: HSV-1; experiment: microbe, parasite or virus in culture; format: cell-based, human herpes 1
[13] = test system: DENV-2; experiment: microbe, parasite or virus in culture; format: cell-based, dengue virus
[14] = test system: WNV; experiment: microbe, parasite or virus in culture; format: cell-based, west nile virus; remark: listed apart in the source
[15] = test system: MDBK cells
[16] = test system: WNV; format: cell-based, west nile virus; settings: for Cell viability, addition at 1, 2, 4 or 8 hours post-infection: 15 μM for 4, 20 μM for 5
[17] = test system: WNV; experiment: Yield reduction assay; format: cell-based, west nile virus; settings: BHK-21, m.o.i. 0.1, 72 hrs, 15μM for 4, 20 μM for 5
[18] = test system: BVDV; experiment: microbe, parasite or virus in culture; format: cell-based, bovine viral diarrhoea virus; settings: read-out: EC50 BVDV
[19] = test system: WNV; experiment: Virucidal activity assay; format: cell-based, west nile virus; settings: 45 min at 37°C, 6 and 20μM for 4, 20 and 50μM for 5
[20] = test system: M. tuberculosis; settings: against M. tuberculosis; cited from earlier work
[21] = test system: Vero cells
[22] = in vitro; settings: cattle (Bos taurus)
[23] = in vitro; settings: hamster (Mesocricetus auratus)
[24] = in vitro; settings: human
[25] = in vitro; settings: African green monkey (Cercopithecus aethiops)
[26] = Mycobacterium tuberculosis, 672 h
[27] = Yellow fever virus, BHK-21, read-out: EC50 YFV
[28] = Reovirus sp., BHK-21, read-out: EC50 Reo-1
[29] = Bovine viral diarrhea virus isolates and strains, MDBK, in Bos taurus
[30] = Human immunodeficiency virus 1, IIIB, MT4, read-out: EC50 HIV-1IIIB
[31] = Human alphaherpesvirus 1, Vero 76, read-out: EC50 HSV-1

CC1(C)O[C@H]1[C@H]1C[C@@H]([C@@H]2CC[C@]3(C)C4=CC[C@H]5C(C)(C)C(=O)CC[C@]5(C)[C@H]4CC[C@@]23C)[C@H](O)O1 [Compound 5, melianone]
CC50 [1]: 50 µM | Cytopathic effects on BHK-21 monolayers [1]: did not show significant cytopathic effects | EC50 ([2]; read-out: EC50 HIV-1IIIB): > 100 µM | EC50 ([3]; read-out: EC50 YFV): 3 µM | EC50 ([4]; read-out: EC50 WNV): 11 µM | MIC [5]: >136 µM | CC50 [6]: 51 µM | EC50 [7]: 3 to 11 µM | EC50 ([8]; read-out: EC50 Reo-1): > 50 µM | CC50 [9]: > 100 µM | WNV adsorption (virus titre) [10]: doesn’t reduce the virus titre | Cytotoxicity towards A549 [11]: exhibit cytotoxicity | EC50 ([12]; read-out: EC50 HSV-1): 20 µM | EC50 ([13]; read-out: EC50 DENV-2): 12 µM | EC50 ([14]; read-out: EC50 WNV 2hrs p.i.): > 50 µM | EC50 ([14]; read-out: EC50 WNV d. i.): 6.1 µM | CC50 [15]: 16 µM | Cell viability, addition during the infection [16]: increases the cell viability | Cell viability, pretreatment [16]: does not increase the cells viability | Cell viability, addition at 1, 2, 4 or 8 hours post-infection [16]: not more able to protect BHK-21 cells; also recorded: not more able to significantly increase the cell viability | Reduction of WNV titre (yield reduction) [17]: a reduction of virus titre was observed | Reduction of WNV titre (yield reduction) ([17]; listed as melianone): Reduction of WNV titre | EC50 [18]: > 16 µM | Virucidal activity (WNV infectivity) [19]: failed to affect the WNV infectivity | Virucidal activity (WNV infectivity) ([19]; listed as melianone): doesn’t affect the WNV infectivity

21-β-acetoxy-melianone [Compound 3]
CC50 [1]: 10 µM | EC50 ([2]; read-out: EC50 HIV-1IIIB): > 23 µM | EC50 ([3]; read-out: EC50 YFV): > 10 µM | CC50 [6]: 36 µM | EC50 ([8]; read-out: EC50 Reo-1): > 10 µM | CC50 [9]: 23 µM | Cytotoxicity towards A549 [11]: exhibit cytotoxicity | EC50 ([12]; read-out: EC50 HSV-1): > 36 µM | CC50 [15]: 22 µM | MIC [20]: 16 µg/mL | EC50 [18]: > 22 µM

NNC(=O)c1ccncc1 [Isoniazid, reference compound]
MIC [5, 26]: 0.45 µM (≈ 0.0617 µg/mL)

C/C=C(\C)C(=O)O[C@@H]1CC[C@]2(C)[C@H]3CC[C@@]4(C)[C@@H]([C@@H]5C[C@H]([C@@H]6OC6(C)C)O[C@H]5O)CC[C@]4(C)C3=CC[C@H]2C1(C)C [Compound 4, 3-α-tigloyl-melianol]
CC50 [1]: 20 µM | Cytopathic effects on BHK-21 monolayers [1]: did not show significant cytopathic effects | EC50 ([2]; read-out: EC50 HIV-1IIIB): > 27 µM | EC50 ([3]; read-out: EC50 YFV): 7 µM | EC50 ([4]; read-out: EC50 WNV): 3 µM | MIC [5]: 29 µM (≈ 16.1 µg/mL) | CC50 [6]: 100 µM | EC50 [7]: 3 to 11 µM | EC50 ([8]; read-out: EC50 Reo-1): > 20 µM | CC50 [9]: 27 µM | WNV adsorption (virus titre) [10]: doesn’t reduce the virus titre | Cytotoxicity towards A549 [11]: exhibit cytotoxicity | Cytotoxicity against Vero cells [21]: > 500 µM | EC50 ([12]; read-out: EC50 HSV-1): > 100 µM | EC50 ([13]; read-out: EC50 DENV-2): 3 µM | EC50 ([14]; read-out: EC50 WNV 2hrs p.i.): > 20 µM | EC50 ([14]; read-out: EC50 WNV d. i.): 3.5 µM | CC50 [15]: 37 µM | Cell viability, addition during the infection [16]: increases the cell viability | Cell viability, pretreatment [16]: does not increase the cells viability | Cell viability, addition at 1, 2, 4 or 8 hours post-infection [16]: not more able to protect BHK-21 cells; also recorded: not more able to significantly increase the cell viability | Reduction of WNV titre (yield reduction) [17]: a reduction of virus titre was observed | EC50 [18]: > 37 µM | Virucidal activity (WNV infectivity) [19]: failed to affect the WNV infectivity | Virucidal activity (WNV infectivity) ([19]; listed as 3-tigloyl-melianol): doesn’t affect the WNV infectivity

C[C@@]1(O)[C@H](O)[C@@H](CO)O[C@H]1n1cnc2c(=O)[nH]c(N)nc21 [2’-C-methyl-guanosine, reference compound]
Cytopathic effects on BHK-21 monolayers [1]: did not show significant cytopathic effects | EC50 [3, 27]: 1.4 µM | EC50 ([4]; West Nile virus, BHK-21, read-out: EC50 WNV): 1 µM | EC50 [8, 28]: 1 µM | CC50 [22]: > 100 µM | EC50 ([13]; Dengue virus, DENV2, BHK-21, read-out: EC50 DENV-2): 1.4 µM | CC50 [23]: 80 µM | EC50 ([14]; West Nile virus, BHK-21, 2 h, read-out: EC50 WNV 2hrs p.i.): 1 µM | EC50 ([14]; West Nile virus, BHK-21, read-out: EC50 WNV d. i.): 1 µM | Cell viability, addition during the infection [16]: increases the cell viability | EC50 [18, 29]: 2 µM

COC(=O)[C@H](CCC=C(C)C)[C@@H]1[C@@H](O)C[C@]2(C)C3=CC[C@H]4C(C)(C)C(=O)CC[C@]4(C)[C@H]3CC[C@@]12C [Compound 2, methyl kulonate]
EC50 [2, 30]: > 35 µM | EC50 [3, 27]: > 100 µM | CC50 [24]: 35 µM | MIC [5, 26]: 70 µM (≈ 33.9 µg/mL) | EC50 [8, 28]: > 100 µM | CC50 [25]: 100 µM | CC50 [22]: 85 µM | Cytotoxicity towards A549 [11]: exhibit cytotoxicity | EC50 [12, 31]: > 100 µM | CC50 [23]: > 100 µM | EC50 [18, 29]: > 85 µM

O=C1Nc2ccc(Cl)cc2[C@@](C#CC2CC2)(C(F)(F)F)O1 [Efavirenz, reference compound]
EC50 [2, 30]: 0.002 µM | CC50 [24]: 40 µM

Nc1nc2c(ncn2COCCO)c(=O)[nH]1 [Acycloguanosine, reference compound]
CC50 [25]: > 100 µM | EC50 [12, 31]: 3 µM

Source: PMC4612778, “Limonoids from Melia azedarach Fruits as Inhibitors of Flaviviruses and Mycobacterium tubercolosis” (PLoS ONE, 2015)
